Assay results as given in US6048854A, “2,3-diaminopropionic acid derivative” (Sumitomo Pharmaceuticals Company, Limited, priority 1993, dated 2000).

Test system: platelet aggregation
Experiment: Platelet aggregation inhibitory activity (ADP-induced, human platelet rich plasma)
Assay type: cell-based
Experimental: The blood was collected from the elbow vein of a normal volunteer with mixing thereof with 1/10 volume of 3.8% sodium citrate, and the blood was centrifuged at 1000 rpm (150 g) for 10 minutes to give the supernatant as platelet rich plasma (PRP). To PRP (200 μl) was added a test compound solution (2 μl), and the mixture was incubated with stirring at 1000 rpm at 37° C. for two minutes, and thereto was added a platelet aggregator, adenosine diphosphate (ADP, 22 μl) at a final concentration of 3 μg/ml. The platelet aggregation activity was determined by nephelometric analysis using a Hematracer (manufactured by Niko Bioscience, Ltd.). The test results of platelet aggregation inhibitory activity are expressed by IC50, which is a concentration of the test compound being required to inhibit the platelet aggregation reaction by 50%.
The compounds of Examples 18 to 70 were tested in the same manner as in Example 17.
The compounds of Examples 72 to 116 were tested in the same manner as in Example 17.

[1] = Homo sapiens, Table 2, same manner as Example 17
[2] = Table 1, human PRP, ADP 3 μg/ml, 37° C.
[3] = Homo sapiens, Table 3, same manner as Example 17

Structure (SMILES) | IC50 [1] | IC50 [3] | also measured
O=C(CCC1CCNCC1)NCCC(=O)NC[C@H](NS(=O)(=O)c1ccc([N+](=O)[O-])cc1)C(=O)O [Example 32, (2S)-2-(4-nitro)benzenesulfonylamino-3-(3-(3-(4-piperidyl)propanoylamino)propanoylamino)propanoic Acid] | 151 nM | – | –
CCCCS(=O)(=O)N[C@@H](CNC(=O)CCNC(=O)CCC1CCNCC1)C(=O)O [Example 3, (2S)-2-butanesulfonylamino-3-(3-(3-(4-piperidyl)propanoylamino)propanoylamino)propanoic Acid] | – | – | IC50 [2]: 162 nM
CC(C)(C)C(=O)OCOC(=O)[C@H](CNC(=O)CCCOc1ccc(C(=N)N)cc1)NS(=O)(=O)c1ccccc1 [Example 113, (2S)-3-(4-(4-amidinophenoxy)butanoylamino)-2-benzenesulfonylaminopropanoicAcid Pivaloyloxymethyl Ester] | – | 48 nM | –
N=C(NC1CCCCC1)c1ccc(C(=O)NCCC(=O)NC[C@H](NS(=O)(=O)c2ccccc2)C(=O)O)cc1 [Example 105, (2S)-2-benzenesulfonylamino-3-(3-(4-(N-cyclohexylamidino)benzoylamino)propanoylamino)propanoic Acid] | – | 22 nM | –
N=C(N)c1ccc(C(=O)NCCC(=O)NC[C@@H](NS(=O)(=O)c2ccccc2)C(=O)O)cc1 [Example 73, (2R)-3-(3-(4-amidinobenzoylamino)propanoylamino)-2-benzenesulfonylaminopropanoic Acid] | – | 162 nM | –
N=C(NN)c1ccc(C(=O)NCCC(=O)NC[C@H](NS(=O)(=O)c2ccccc2)C(=O)O)cc1 [Example 101, (2S)-2-benzenesulfonylamino-3-(3-(4-hydrazinoiminobenzoylamino)propanoylamino)propanoic Acid] | – | 103 nM | –
CCCCC(=O)N[C@@H](CNC(=O)CCNC(=O)CCC1CCNCC1)C(=O)O [Example 11, (2S)-2-pentanoylamino-3-(3-(3-(4-piperidyl)propanoylamino)propanoylamino)propanoic Acid] | – | – | IC50 [2]: 8730 nM
O=C(CCC1CCNCC1)NCCC(=O)NC[C@H](NS(=O)(=O)Cc1ccccc1)C(=O)O [Example 10, (2S)-2-benzylsulfonylamino-3-(3-(3-(4-piperidyl)propanoylamino)propanoylamino)propanoic Acid] | – | – | IC50 [2]: 232 nM
Cc1cc(C)c(S(=O)(=O)N[C@@H](CNC(=O)CCNC(=O)CCC2CCNCC2)C(=O)O)c(C)c1 [Example 33, (2S)-3-(3-(3-(4-piperidyl)propanoylamino)propanoylamino)-2-(2,4,6-trimethyl)benzenesulfonylaminopropanoic Acid] | 15 nM | – | –
O=C(CCC1CCNCC1)NCCC(=O)NC[C@H](NS(=O)(=O)c1ccc(OC(F)(F)F)cc1)C(=O)O [Example 47, (2S)-3-(3-(3-(4-piperidyl)propanoylamino)propanoylamino)-2-(4-trifluoromethoxy)benzenesulfonylaminopropanoic Acid] | 238 nM | – | –
COc1ccc(S(=O)(=O)N[C@@H](CNC(=O)CCNC(=O)CCC2CCNCC2)C(=O)O)cc1 [Example 40, (2S)-2-(4-methoxy)benzenesulfonylamino-3-(3-(3-(4-piperidyl)propanoylamino)propanoylamino)propanoic Acid] | 3 nM | – | –
O=C(CCC1CCNCC1)NCCC(=O)NC[C@H](NS(=O)(=O)c1ccccc1C(F)(F)F)C(=O)O [Example 27] | 26 nM | – | –
N=C(N)c1ccc(C(=O)NCCC(=O)NC[C@H](NS(=O)(=O)c2ccccc2N)C(=O)O)cc1 [Example 81, (2S)-3-(3-(4-amidinobenzoylamino)propanoylamino)-2-(2-amino)benzenesulfonylaminopropanoic Acid] | – | 28 nM | –
O=C(CCC1CCNCC1)NCCC(=O)NC[C@H](NS(=O)(=O)c1ccc2ccccc2c1)C(=O)O [Example 43, (2S)-2-(2-naphthalene)sulfonylamino-3-(3-(3-(4-piperidyl)propanoylamino)propanoylamino)propanoic Acid] | 260 nM | – | –
O=C(CCC1CCNCC1)NCCC(=O)NC[C@H](NS(=O)(=O)c1c(F)c(F)c(F)c(F)c1F)C(=O)O [Example 34, (2S)-2-(2,3,4,5,6-pentafluoro)benzenesulfonylamino-3-(3-(3-(4-piperidyl)propanoylamino)propanoylamino)propanoic Acid] | 126 nM | – | –
NC(=O)c1ccc(C(=O)NCCC(=O)NC[C@H](NS(=O)(=O)c2ccccc2N)C(=O)O)cc1 [Example 114, (2S)-2-(2-amino)benzenesulfonylamino-3-(3-(4-carbamoylbenzoylamino)propanoylamino)propanoic Acid] | – | 35 nM | –
N=C(N)c1ccc(C(=O)CCCCC(=O)NC[C@H](NS(=O)(=O)c2ccccc2)C(=O)O)cc1 [Example 94, (2S)-3-(5-(4-amidinobenzoyl)pentanoylamino)-2-benzenesulfonylaminopropanoic Acid] | – | 31 nM | –

Structure (SMILES) | IC50 [1] | IC50 [3] | also measured
O=C(CCCC(=O)NC[C@H](NS(=O)(=O)c1ccccc1)C(=O)O)NCC1CCNCC1 [Example 54, (2S)-2-benzenesulfonylamino-3-(4-(4-piperidylmethylcarbamoyl)butanoylamino)propanoic Acid] | 79 nM | – | –
O=C(CCC1CCNCC1)NCCC(=O)NC[C@H](NS(=O)(=O)c1ccccc1[N+](=O)[O-])C(=O)O [Example 30, (2S)-2-(2-nitro)benzenesulfonylamino-3-(3-(3-(4-piperidyl)propanoylamino)propanoylamino)propanoic Acid] | 16 nM | – | –
CCCc1ccc(S(=O)(=O)N[C@@H](CNC(=O)CCNC(=O)CCC2CCNCC2)C(=O)O)cc1 [Example 49, (2S)-3-(3-(3-(4-piperidyl)propanoylamino)propanoylamino)-2-(4-propyl)benzenesulfonylaminopropanoic Acid] | 170 nM | – | –
O=C(CCC1CCNCC1)NCCC(=O)NC[C@H](NS(=O)(=O)c1cccc([N+](=O)[O-])c1)C(=O)O [Example 31, (2S)-2-(3-nitro)benzenesulfonylamino-3-(3-(3-(4-piperidyl)propanoylamino)propanoylamino)propanoic Acid] | 142 nM | – | –
CCCCOc1ccc(S(=O)(=O)N[C@@H](CNC(=O)CCNC(=O)CCC2CCNCC2)C(=O)O)cc1 [Example 48, (2S)-2-(4-butoxy)benzenesulfonylamino-3-(3-(3-(4-piperidyl)propanoylamino)propanoylamino)propanoic Acid] | 67 nM | – | –
CCNC(=N)c1ccc(OCCCC(=O)NC[C@H](NS(=O)(=O)c2ccccc2)C(=O)O)cc1 [Example 108, (2S)-2-benzenesulfonylamino-3-(4-(4-(N-ethylamidino)phenoxy)butanoylamino)propanoic Acid] | – | 51 nM | –
O=C(CCC1CCNCC1)NCCC(=O)NC[C@H](NS(=O)(=O)c1ccc(F)cc1)C(=O)O [Example 35, (2S)-2-(4-fluoro)benzenesulfonylamino-3-(3-(3-(4-piperidyl)propanoylamino)propanoylamino)propanoic Acid] | 25 nM | – | –
CC(C)(C)c1ccc(S(=O)(=O)N[C@@H](CNC(=O)CCNC(=O)CCC2CCNCC2)C(=O)O)cc1 [Example 39, (2S)-2-(4-t-butyl)benzenesulfonylamino-3-(3-(3-(4-piperidyl)propanoylamino)propanoylamino)propanoic Acid] | 185 nM | – | –
CCCCS(=O)(=O)N[C@@H](CNC(=O)CCNC(=O)CCCCC1CCNCC1)C(=O)O [Example 13, (2S)-2-butanesulfonylamino-3-(3-(5-(4-piperidyl)pentanoylamino)propanoylamino)propanoic Acid] | – | – | IC50 [2]: 1810 nM
CCCCS(=O)(=O)N[C@@H](CNC(=O)CNC(=O)CCCC1CCNCC1)C(=O)O [Example 5, (2S)-2-butanesulfonylamino-3-(N-(4-(4-piperidyl)butanoyl)glycylamino)propanoic Acid] | – | – | IC50 [2]: 2990 nM
O=C(CCCC1CCNCC1)NCCC(=O)NC[C@H](NS(=O)(=O)c1ccccc1)C(=O)O [Example 53, (2S)-2-benzenesulfonylamino-3-(3-(4-(4-piperidyl)butanoylamino)propanoylamino)propanoic Acid] | 111 nM | – | –
CN(CCC(=O)NC[C@H](NS(=O)(=O)c1ccccc1)C(=O)O)C(=O)c1ccc(C(=N)N)cc1 [Example 96, (2S)-3-(3-(4-amidinobenzoylmethylamino)propanoylamino)-2-benzensulfonylaminopropanoic Acid] | – | 57 nM | –
COc1ccc(S(=O)(=O)N[C@@H](CNC(=O)C2CCCN(C(=O)CCC3CCNCC3)C2)C(=O)O)cc1 (stereo partly drawn) [Example 70, (2S)-2-(4-methoxy)benzenesulfonylamino-3-(1-(3-(4-piperidyl)propanoyl)-3-piperidylcarbonylamino)propanoic Acid] | 57 nM | – | –
CCCCS(=O)(=O)N[C@H](CNC(=O)CCNC(=O)CCC1CCNCC1)C(=O)O [Example 9, (2R)-2-butanesulfonylamino-3-(3-(3-(4-piperidyl)propanoylamino)propanoylamino)propanoic Acid] | – | – | IC50 [2]: 3630 nM
N=C(N)c1ccc(CCCCC(=O)NC[C@H](NS(=O)(=O)c2ccccc2C(F)(F)F)C(=O)O)cc1 [Example 90, (2S)-3-(5-(4-amidinophenyl)pentanoylamino)-2-(2-trifluoromethyl)benzenesulfonylaminopropanoic Acid] | – | 15 nM | –
CC(=O)NNC(=N)c1ccc(C(=O)NCCC(=O)NC[C@H](NS(=O)(=O)c2ccccc2)C(=O)O)cc1 [Example 102, (2S)-2-benzenesulfonylamino-3-(3-(4-acetylhydrazinoiminobenzoylamino)propanoylamino)propanoic Acid] | – | 35 nM | –
